Assay results reported in US12569482B2, “Methods and compositions for treating idiopathic pulmonary fibrosis” (priority 2018, dated 2026).

Experiments:
[1] = tested on: bleomycin-induced lung fibrosis; assay: Bleomycin induced IPF mouse model, Example 2 (oral itraconazole, nintedanib or combination); type: in vivo, C57BL/6 mice
Description: The animals in the Control group were administered intratracheally with PBS at a dose of 2 mL/kg while the others were administered intratracheally with bleomycin (Cat #HY-17565, MCE) at a dose of 0.66 mg/kg. On Day 5, the mice with bleomycin treatment were divided into four groups at random (referred to as Group 2-5, n=10), and orally administered with vehicle (DMSO: PEG400=1:[…]), itraconazole ([…] Co. Ltd. prepared in DMSO/PEG400 with a final concentration of 1.5 mg/mL), nintedanib ([…] Co. […] The mice in the Control group was administered with vehicle (DMSO/PEG400) at a daily dose of 10 mL/kg. Mice body weights were measured and recorded on Day 1, 5, 12, 19 and 21.

[2] = tested on: bleomycin-induced lung fibrosis; assay: Bleomycin induced IPF mouse model, Example 1 (oral nintedanib or fluconazole); type: in vivo, C57BL/6 mice; conditions: nintedanib 60 mg/kg
Description: Forty male C57BL/6 mice (Nanjing Biomedical Research Institute of Nanjing University) were randomly divided into two groups on Day 1, 10 animals for one group (referred to as Control group or Group 1) and 30 for the other. The animals in the Control group were administered intratracheally with PBS at a dose of 2 mL/kg while the others were administered intratracheally with bleomycin (Cat #HY-17565, MCE) at a dose of 0.66 mg/kg.
On Day 5, the mice with bleomycin treatment were divided into three groups at random (referred to as Group 2-4, n=10), and orally administered with vehicle (0.5% Methyl cellulose), nintedanib (Kangmanlin Co. Ltd., prepared in 0.5% Methyl cellulose with a final concentration of 6.0 mg/mL) and fluconazole (Kangmanlin Co. Ltd., prepared in 0.5% Methyl cellulose with a final concentration of 7.0 mg/mL) at daily doses of 10 mL/kg, 60 mg/kg and 70 mg/kg, respectively. The mice in the Control group was administered with vehicle (0.5% Methyl cellulose) at a daily dose of 10 mL/kg. Mice body weights were measured and recorded on Day 1, 5, 12, 19 and 25.
Two hours post drug administration on Day 25, all animals were anaesthetized with pentobarbital (i.p., 65 mg/kg). Blood samples were collected from orbital vein, put in tubes pre-coated with EDTA-K2 (KANG JIAN, Cat #KJ202), centrifuged at 4000×g for 10 minutes at 4° C. and then stored at −80° C. for determination of plasma drug levels. Then, the trachea was exposed, and bronchoalveolar lavage fluid (BALF) was collected from each mouse by injecting 0.3 mL of saline into trachea close to the larynx for three times. After BALF collection, mice were perfused with saline, and all four lung lobes were collected from each mouse, fixed in 10% NBF solution, embedded in paraffin and cut into 5 μm-thick sections. The sections were de-paraffinized with xylene and ethanol and subject to Haematoxylin-Eosin, Masson Trichrome and α-SMA IHC staining.
The bronchoalveolar lavage fluid of 20 μL was mixed with 20 μL of trypan blue to determine the cell number. Then, the cells in the BALF were concentrated using a Cytospinat at 1,000 rpm for 5 minutes, smeared on slides and then stained with Diff-Quik stain. Cell types (alveolar macrophages, neutrophils, or lymphocytes) were determined by counting at least 200 cells using a standard hemocytometer. The rest BALFs were centrifuged and supernatants were collected and stored at −80° C. for soluble collagen analysis.
The Haematoxylin-Eosin staining was used to identify and quantitate the inflammatory cells in the tissues, and the total inflammation area was calculated using the AperioScanScope software.
The sections with Masson Trichrome staining were scored for pulmonary fibrosis according to the modified Ashcroft fibrosis rating criteria in Table 1 below. Each lung lobe was divided into 4 parts according to the distance from the main bronchus, i.e., the upper, upper middle, lower middle and lower parts, which were scored separately and averaged later.
α-SMA is a well characterized marker in fibrosis. Immunohistochemistry staining of α-SMA is often used to characterize and quantitate the tissue fibrosis. Increased staining of α-SMA often reflects accumulation of collagen-producing myofibroblasts. Before α-SMA IHC staining, the de-paraffinized sections were treated with citrate antigen retrieval solution (0.01 N citrate buffer, pH 6.0) at 100° C. for 10 minutes, and then incubated with rabbit polyclonal anti-α-SMA (1:400, ab5694, Abcam) for 1 hour followed by goat anti-rabbit HRP (K4003, Dako). DAB substrate kit (DAB0031, Maixin, Shanghai) was used for chromogenic staining. All sections were further counter-stained with hematoxylin. […] α-SMA staining areas were calculated using the AperioImageScope program.
Statistical analysis was performed using student's T-test, one-way or two-way ANOVA followed by post-hoc Dunnett's test if significant. […] The difference was considered significant when p<0.05. *p<0.05, **p<0.01, ***[…].

[3] = compared to model group, 15 mg/kg, 60 mg/kg, 15+60 mg/kg p.o. daily

COC(=O)c1ccc2c(c1)NC(=O)/C2=C(\Nc1ccc(N(C)C(=O)CN2CCN(C)CC2)cc1)c1ccccc1 [nintedanib]
BALF collagen level [1, 3]: reduced | BALF neutrophil number [1, 3]: reduced | lung inflammation area [1, 3]: significantly reduced | modified Ashcroft score [1, 3]: significantly reduced | α-SMA staining area [1, 3]: significantly reduced | mice body weight ([1]; itraconazole 15 mg/kg, nintedanib 60 mg/kg, 15+60 mg/kg p.o. daily Day 5-21): inhibited bleomycin-induced body weight reduction to some extent | reduction of lung inflammation area ([2]; Haematoxylin-Eosin staining, fluconazole 70 mg/kg p.o. daily): 84% | reduction of modified Ashcroft score ([2]; Masson Trichrome staining, fluconazole 70 mg/kg p.o. daily): 39% | anti-IPF activities / fibrosis related endpoint measurements (overall) ([2]; fluconazole 70 mg/kg daily dose): efficacious | total cell number and macrophage/monocyte number in BALF ([2]; oral daily Day 5-25): reduced cell number to some extent | BALF collagen levels ([2]; oral daily Day 5-25, fluconazole 70 mg/kg, vs bleomycin + vehicle): significantly reduced collagen levels | reduction of α-SMA staining area ([2]; α-SMA IHC, fluconazole 70 mg/kg p.o. daily): 39%
